The record followed here is patent US20260159520A1, “HETEROBIFUNCTIONAL COMPOUNDS AND METHODS OF TREATING DISEASE” (Halda Therapeutics OpCo, Inc., priority 2022, published 2026).

Test [1] relates to T-Rex 293 cell line SC cells lacking increased expression of progesterone receptor isoform B protein. Description: Cellular growth inhibition, T-Rex 293 SC cells without doxycycline. Particulars: not exposed to doxycycline, 72 hours, CellTiter-Glo 2.0. In kind it is cell-based. As to the method:
(§1) The following types of cells were prepared for this experiment: (i) a T-Rex 293 cell line having increased expression of progesterone receptor isoform B protein due to exposure to doxycycline and (ii) a T-Rex 293 cell line lacking increased expression of progesterone receptor isoform B protein. Ability of the test compounds to inhibit proliferation of the foregoing cell types was evaluated according to the procedures set forth below.
(§2) The doxycycline-inducible progesterone receptor isoform B protein expressing cell line was established using the following protocol: T-Rex 293 cells were purchased from Invitrogen (Cat #R71007) and transfected using Lipofectamine 2000 with the wild-type progesterone receptor B protein sequence cloned into the pcDNA4/TO vector. Transfected cells were selected using 400 μg/mL Zeocin (Invitrogen Cat #R25001). Following selection, single clones were raised and maintained in Dulbecco's Modified Eagle Medium (DMEM) supplemented with 10% w/w Tetracycline-free fetal bovine serum (FBS) and 250 μg/mL Zeocin. Clones were analyzed for expression of progesterone receptor isoform B protein in the presence and absence of 10 ng/mL doxycycline (Sigma Cat #D9891), and a single doxycycline-inducible clone (hereinafter “SC”) was selected for use in downstream assays.
(§3) The SC cells were seeded on poly-D-lysine coated, black clear-bottom 384-well plates at 2500/well, in 25 μL Phenol Red Free Dulbecco's Modified Eagle Medium (DMEM) supplemented with 10% w/w charcoal-dextran treated fetal bovine serum (FBS) and 1% w/w pen-strep, with or without 10 ng/mL doxycycline. Pen-Strep is a commercially available mixture of penicillin G and streptomycin, which is used in mammalian cell culture media to prevent bacterial contamination. Phenol Red Free Dulbecco's Modified Eagle Medium (DMEM) supplemented with 10% w/w charcoal-dextran treated fetal bovine serum (FBS) and 1% w/w pen-strep, with or without 10 ng/mL doxycycline is herein referred to as Treatment Medium. Following seeding of cells in the plates, the plates were spun at 300×g for 30 seconds, then equilibrated to room temperature for 30 minutes, and then deposited in a humidified tissue culture incubator maintained at 37° C. with 5% CO2.
(§4) At 24 hours after seeding of the cells, dilutions of test compound were prepared in DMSO and dissolved in Treatment Medium, to achieve a final DMSO concentration of 0.5% w/w, thereby providing the Test Compound Solution. A 25 μL aliquot of the Test Compound Solution was added to cells in the well plates. An equal volume of a solution containing DMSO and Treatment Medium was used as a negative control. Following treatment of cells with Test Compound Solution or said equal volume of a solution containing DMSO and Treatment Medium, the plates were spun at 300×g for 30 seconds, and then left in an incubator for 72 hours.
(§5) At the end of the treatment duration, cell viability was quantified with CellTiter-Glo 2.0 reagent (Promega Cat #G9243). For this purpose, plates were equilibrated to room temperature for 30 minutes, and then 25 μL of CellTiter-Glo 2.0 reagent was added to cells in the plate wells. Plates were then agitated on a shaker for two minutes at 500 rpm and subsequently incubated at room temperature for 10 minutes. Following incubation, the plates were spun at 3000×g for 30 seconds, then sealed with an optical adhesive cover, and luminescence readings were measured with an EnVision Plate Reader (Perkin Elmer).
(§6) Data was normalized using zero luminescence for baseline. A four-parameter non-linear regression curve fit was applied to dose-response data in GraphPad Prism data analysis software to determine the half-maximal growth inhibitory concentration (GI50) for each test compound.
For orientation: ATP-based viability assays read luminescence as a measure of living cells.

The subject of test [2] is T-Rex 293 cell line SC cells having increased expression of progesterone receptor isoform B protein. In words: Cellular growth inhibition, T-Rex 293 SC cells with doxycycline (increased progesterone receptor isoform B expression). The test is classed as cell-based. To be noted: with 10 ng/mL doxycycline (increased progesterone receptor isoform B), 72 hours, CellTiter-Glo 2.0. As to the method:
as §1, §2, §3, §4, §5, §6

In the case of `Cc1ncc(-c2nc(Nc3ccc(C(=O)N4CC[C@H](N(C)CCOC5CCN(c6ncc(C(=O)N[C@H]7C(C)(C)[C@H](Oc8ccc(C#N)c(Cl)c8)C7(C)C)cn6)CC5)C4)cc3)ncc2F)n1C(C)C` [Compound I-95, N-[3-(3-chloro-4-cyano-phenoxy)-2,2,4,4-tetramethyl-cyclobutyl]-2-[4-[2-[[(3S)-1-[4-[[5-fluoro-4-(3-isopropyl-2-methyl-imidazol-4-yl)pyrimidin-2-yl]amino]benzoyl]pyrrolidin-3-yl]-methyl-amino]ethoxy]-1-piperidyl]pyrimidine-5-carboxamide], the GI50 in test [1] and in test [2] was less than 500 nM throughout.
In the case of `Cc1ncc(-c2nc(Nc3ccc(C(=O)N4CC[C@H](N(C)CCOCCOCCOC5CCN(c6ncc(C(=O)N[C@H]7C(C)(C)[C@H](Oc8ccc(C#N)c(Cl)c8)C7(C)C)cn6)CC5)C4)cc3)ncc2F)n1C(C)C` [Compound I-96], the GI50 in test [1] and in test [2] was 1500 to 3000 nM throughout.
Take `Cc1ncc(-c2nc(Nc3ccc(C(=O)N4CC[C@H](N(C)CCOCCOCCOCCOCCOC5CCN(c6ncc(C(=O)N[C@H]7C(C)(C)[C@H](Oc8ccc(C#N)c(Cl)c8)C7(C)C)cn6)CC5)C4)cc3)ncc2F)n1C(C)C` [Compound I-97]: the results for the 50% growth inhibitory concentration (GI50) in test [1] and in test [2] were 1500 to 3000 nM and 500 to 1500 nM, respectively.

What is called GI50 is the concentration at which growth is held to half of that of the control. High values mean less potent growth inhibition, low ones more potent growth inhibition.
